Calls of active or inactive are those of the source. The rule behind the calls is not given here.

In the series the test system is CCRIS mutagenicity, Ames/micronucleus/aberration tests. Briefly: CCRIS mutagenicity studies. The source says: The CCRIS database contains chemical records with carcinogenicity, mutagenicity, tumor promotion, and tumor inhibition test results. It was developed by the National Cancer Institute (NCI). Data are derived from studies cited in primary journals, current awareness tools, NCI reports, and other sources. Test results have been reviewed by experts in carcinogenesis and mutagenesis.
CCRIS provides historical information from the years 1985 - 2011. It is no longer updated.
This is an archive assay for CCRIS mutagenicity studies.

Setting [1] is: Test System: AMES SALMONELLA TYPHIMURIUM, Strain/Indicator: TA98, Metabolic Activation: RAT, LIVER, S-9, AROCLOR 1254, Method: STANDARD PLATE.
Setting [2] is: Test System: AMES SALMONELLA TYPHIMURIUM, Strain/Indicator: TA100, Metabolic Activation: NONE, Method: STANDARD PLATE.

On to `ONc1ccc2c(c1)Cc1ccccc1-2`, for which the mutagenic call is “active; positive” (Test System: AMES SALMONELLA TYPHIMURIUM, Strain/Indicator: TA98, Metabolic Activation: NONE, Method: STANDARD PLATE); “active; positive” under setting [1]; “active; positive” (Test System: AMES SALMONELLA TYPHIMURIUM, Strain/Indicator: TA98, Metabolic Activation: S-9, Method: STANDARD PLATE); “active; positive” under setting [2]; “active; positive” (Test System: AMES SALMONELLA TYPHIMURIUM, Strain/Indicator: TA100, Metabolic Activation: S-9, Method: STANDARD PLATE); “active; positive” (Test System: AMES SALMONELLA TYPHIMURIUM, Strain/Indicator: TA1538, Metabolic Activation: NONE, Method: STANDARD PLATE). Besides, the mutagenic call (Test System: AMES SALMONELLA TYPHIMURIUM, Strain/Indicator: YG1020, Metabolic Activation: NONE, Method: PREINCUBATION) is “active; positive”; the mutagenic call (Test System: AMES SALMONELLA TYPHIMURIUM, Strain/Indicator: YG1024, Metabolic Activation: NONE, Method: PREINCUBATION) was “active; positive”; the mutagenic call (Test System: AMES SALMONELLA TYPHIMURIUM, Strain/Indicator: YG1025, Metabolic Activation: NONE, Method: PREINCUBATION) is “active; positive”; the mutagenic call (Test System: AMES SALMONELLA TYPHIMURIUM, Strain/Indicator: YG1029, Metabolic Activation: NONE, Method: PREINCUBATION) was “active; positive”; the mutagenic call (Test System: CHINESE HAMSTER OVARY, Strain/Indicator: CHO-K1-BH4 (HGPRT), Metabolic Activation: NONE, Method: SUSPENSION) is “active; positive”; the mutagenic call (Test System: E. COLI, Strain/Indicator: WP2, Metabolic Activation: NONE, Method: PREINCUBATION) was “active; positive”. The mutagenic call (Test System: E. COLI, Strain/Indicator: WP2 UVRA, Metabolic Activation: NONE, Method: PREINCUBATION) was “active; positive”.

Regarding `CC(=O)N[C@@H]1[C@@H](O[C@@H]2O[C@H](C(=O)O)[C@@H](O[C@@H]3O[C@H](CO)[C@@H](O)[C@H](O[C@@H]4O[C@H](C(=O)O)[C@@H](O)[C@H](O)[C@H]4O)[C@H]3NC(C)=O)[C@H](O)[C@H]2O)[C@H](O)[C@@H](CO)O[C@H]1O`, the mutagenic call runs as follows: (Test System: AMES SALMONELLA TYPHIMURIUM, Strain/Indicator: TA98, Metabolic Activation: NONE) “inactive; negative”; (Test System: AMES SALMONELLA TYPHIMURIUM, Strain/Indicator: TA98, Metabolic Activation: NONE, Method: PREINCUBATION) “inactive; negative”; (Test System: AMES SALMONELLA TYPHIMURIUM, Strain/Indicator: TA98, Metabolic Activation: RAT, LIVER, S-9, PHENOBARBITAL AND 5,6-BENZOFLAVONE, Method: PREINCUBATION) “inactive; negative”; (Test System: AMES SALMONELLA TYPHIMURIUM, Strain/Indicator: TA98, Metabolic Activation: RAT, LIVER, S-9, Method: PREINCUBATION) “inactive; negative”; (Test System: AMES SALMONELLA TYPHIMURIUM, Strain/Indicator: TA98, Metabolic Activation: S-9) “inactive; negative”; (Test System: AMES SALMONELLA TYPHIMURIUM, Strain/Indicator: TA100, Metabolic Activation: NONE) “inactive; negative”. The mutagenic call is, setting by setting: (Test System: AMES SALMONELLA TYPHIMURIUM, Strain/Indicator: TA100, Metabolic Activation: NONE, Method: PREINCUBATION) “inactive; negative”; (Test System: AMES SALMONELLA TYPHIMURIUM, Strain/Indicator: TA100, Metabolic Activation: RAT, LIVER, S-9, PHENOBARBITAL AND 5,6-BENZOFLAVONE, Method: PREINCUBATION) “inactive; negative”; (Test System: AMES SALMONELLA TYPHIMURIUM, Strain/Indicator: TA100, Metabolic Activation: RAT, LIVER, S-9, Method: PREINCUBATION) “inactive; negative”; (Test System: AMES SALMONELLA TYPHIMURIUM, Strain/Indicator: TA100, Metabolic Activation: S-9) “inactive; negative”; (Test System: AMES SALMONELLA TYPHIMURIUM, Strain/Indicator: TA1535, Metabolic Activation: NONE) “inactive; negative”; (Test System: AMES SALMONELLA TYPHIMURIUM, Strain/Indicator: TA1535, Metabolic Activation: NONE, Method: PREINCUBATION) “inactive; negative”. The mutagenic call is “inactive; negative” (Test System: AMES SALMONELLA TYPHIMURIUM, Strain/Indicator: TA1535, Metabolic Activation: RAT, LIVER, S-9, PHENOBARBITAL AND 5,6-BENZOFLAVONE, Method: PREINCUBATION); “inactive; negative” (Test System: AMES SALMONELLA TYPHIMURIUM, Strain/Indicator: TA1535, Metabolic Activation: RAT, LIVER, S-9, Method: PREINCUBATION); “inactive; negative” (Test System: AMES SALMONELLA TYPHIMURIUM, Strain/Indicator: TA1535, Metabolic Activation: S-9); “inactive; negative” (Test System: AMES SALMONELLA TYPHIMURIUM, Strain/Indicator: TA1537, Metabolic Activation: NONE); “inactive; negative” (Test System: AMES SALMONELLA TYPHIMURIUM, Strain/Indicator: TA1537, Metabolic Activation: NONE, Method: PREINCUBATION); “inactive; negative” (Test System: AMES SALMONELLA TYPHIMURIUM, Strain/Indicator: TA1537, Metabolic Activation: RAT, LIVER, S-9, PHENOBARBITAL AND 5,6-BENZOFLAVONE, Method: PREINCUBATION). For the same compound, the mutagenic call runs as follows: (Test System: AMES SALMONELLA TYPHIMURIUM, Strain/Indicator: TA1537, Metabolic Activation: RAT, LIVER, S-9, Method: PREINCUBATION) “inactive; negative”; (Test System: AMES SALMONELLA TYPHIMURIUM, Strain/Indicator: TA1537, Metabolic Activation: S-9) “inactive; negative”; (Test System: E. COLI, Strain/Indicator: WP2 UVRA, Metabolic Activation: NONE) “inactive; negative”; (Test System: E. COLI, Strain/Indicator: WP2 UVRA, Metabolic Activation: S-9) “inactive; negative”; (Test System: E.COLI, Strain/Indicator: WP2 UVRA, Metabolic Activation: NONE, Method: PREINCUBATION) “inactive; negative”; (Test System: E.COLI, Strain/Indicator: WP2 UVRA, Metabolic Activation: RAT, LIVER, S-9, PHENOBARBITAL AND 5,6-BENZOFLAVONE, Method: PREINCUBATION) “inactive; negative”. Besides, for the setting “Test System: E.COLI, Strain/Indicator: WP2 UVRA, Metabolic Activation: RAT, LIVER, S-9, Method: PREINCUBATION”, the mutagenic call was “inactive; negative”.

In the case of `Oc1cccc2c1ccc1c3ccccc3ccc21`, the mutagenic call reads like this: under setting [1], “inactive; negative”; under setting [2], “inactive; negative”.

For the compound `O=C1c2ccccc2C(=O)c2c1cc(O[C@H]1O[C@H](CO[C@@H]3OC[C@@H](O)[C@H](O)[C@H]3O)[C@@H](O)[C@H](O)[C@H]1O)c(CO)c2O`, the mutagenic call is “inactive; negative” (Test System: AMES SALMONELLA TYPHIMURIUM, Strain/Indicator: TA98, Metabolic Activation: NONE, Method: PREINCUBATION (PH 6.5 OR 7.4)); “inactive; negative” (Test System: AMES SALMONELLA TYPHIMURIUM, Strain/Indicator: TA98, Metabolic Activation: RAT, LIVER, S-9, SODIUM BARBITAL AND BETA-NAPHTHOFLAVONE, Method: PREINCUBATION (PH 6.5 OR 7.4)); “active; positive” (Test System: AMES SALMONELLA TYPHIMURIUM, Strain/Indicator: TA100, Metabolic Activation: NONE, Method: PREINCUBATION (PH 6.5 OR 7.4)); “inactive; negative” (Test System: AMES SALMONELLA TYPHIMURIUM, Strain/Indicator: TA100, Metabolic Activation: RAT, LIVER, S-9, SODIUM BARBITAL AND BETA-NAPHTHOFLAVONE, Method: PREINCUBATION).

Regarding `Cc1c(N)cc(N)cc1N`, the mutagenic call was “active; positive” (Test System: CHINESE HAMSTER CELLS, Strain/Indicator: CHO CELLS(HPRT)/6-THIOGUANINE, Metabolic Activation: NONE, Method: SUSPENSION/PLATE) and “inactive; negative” (Test System: CHINESE HAMSTER CELLS, Strain/Indicator: CHO CELLS(HPRT)/6-THIOGUANINE, Metabolic Activation: RAT LIVER S-9, AROCLOR 1254, Method: SUSPENSION/PLATE).

In the case of `CCCCOc1cc(OC)ccc1C(=O)NOC(C)=O`, the mutagenic call under setting [2] was “active; positive” and the mutagenic call (Test System: AMES SALMONELLA TYPHIMURIUM, Strain/Indicator: TA100, Metabolic Activation: RAT, S-9, AROCLOR, Method: STANDARD PLATE) was “active; positive”.

The values above are taken from PubChem BioAssay AID1259407 (Chemical Carcinogenesis Research Information System (CCRIS), 2018).
